Laboratory results as given in ChEMBL document CHEMBL3797202, “Novel Oxindole Sulfonamides and Sulfamides: EPZ031686, the First Orally Bioavailable Small Molecule SMYD3 Inhibitor” (ACS Med Chem Lett, 2016).

Assays:
[1] = molecular target: Histone-lysine N-methyltransferase, H3 lysine-79 specific (Homo sapiens) (UniProt Q8TEK3); assay: Inhibition of DOT1L (unknown origin) at 10 uM relative to control
[2] = molecular target: T1, Histone-lysine N-methyltransferase EHMT2 (Homo sapiens) (UniProt Q96KQ7); assay: Inhibition of EHMT2 (unknown origin) at 10 uM relative to control
T1 sequence (whole entry): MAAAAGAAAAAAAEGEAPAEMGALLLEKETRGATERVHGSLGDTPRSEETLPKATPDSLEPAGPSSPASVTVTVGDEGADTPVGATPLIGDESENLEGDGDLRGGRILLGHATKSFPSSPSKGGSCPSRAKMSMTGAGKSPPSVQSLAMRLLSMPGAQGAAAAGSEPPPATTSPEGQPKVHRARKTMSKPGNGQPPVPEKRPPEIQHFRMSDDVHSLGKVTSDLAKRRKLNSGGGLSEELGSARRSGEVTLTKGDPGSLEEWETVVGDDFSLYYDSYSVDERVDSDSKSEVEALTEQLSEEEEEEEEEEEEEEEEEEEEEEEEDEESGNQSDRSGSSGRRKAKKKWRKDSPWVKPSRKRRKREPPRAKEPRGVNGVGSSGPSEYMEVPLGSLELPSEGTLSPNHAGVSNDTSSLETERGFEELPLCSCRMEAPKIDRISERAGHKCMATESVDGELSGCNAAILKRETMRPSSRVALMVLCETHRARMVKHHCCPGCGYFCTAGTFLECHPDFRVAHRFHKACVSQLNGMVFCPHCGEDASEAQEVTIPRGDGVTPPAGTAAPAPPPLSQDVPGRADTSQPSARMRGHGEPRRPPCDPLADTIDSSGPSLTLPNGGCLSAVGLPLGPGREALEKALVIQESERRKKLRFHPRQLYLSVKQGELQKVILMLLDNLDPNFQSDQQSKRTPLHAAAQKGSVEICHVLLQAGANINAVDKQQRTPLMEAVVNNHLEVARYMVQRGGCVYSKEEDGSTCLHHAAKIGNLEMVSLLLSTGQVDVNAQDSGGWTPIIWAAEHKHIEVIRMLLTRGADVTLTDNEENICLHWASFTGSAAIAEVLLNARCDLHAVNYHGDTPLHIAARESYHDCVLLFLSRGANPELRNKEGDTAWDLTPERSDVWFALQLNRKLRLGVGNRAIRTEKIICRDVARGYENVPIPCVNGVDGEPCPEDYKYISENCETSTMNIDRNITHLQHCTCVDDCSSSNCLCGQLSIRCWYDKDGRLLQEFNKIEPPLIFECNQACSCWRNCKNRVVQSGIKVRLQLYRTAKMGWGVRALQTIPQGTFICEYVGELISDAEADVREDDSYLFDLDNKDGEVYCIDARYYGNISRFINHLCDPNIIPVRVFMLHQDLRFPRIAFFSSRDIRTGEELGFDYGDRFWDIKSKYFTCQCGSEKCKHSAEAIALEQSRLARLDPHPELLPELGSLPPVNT

[3] = molecular target: Histone-lysine N-methyltransferase EZH2 (Homo sapiens) (UniProt Q15910); assay: Inhibition of EZH2 (unknown origin) at 10 uM relative to control
[4] = molecular target: Protein arginine N-methyltransferase 3 (Homo sapiens) (UniProt O60678); assay: Inhibition of PRMT3 (unknown origin) at 10 uM relative to control
[5] = molecular target: T2, Histone-lysine N-methyltransferase NSD3 (Homo sapiens) (UniProt Q9BZ95); assay: Inhibition of WHSC1L1 (unknown origin) at 10 uM relative to control
T2 sequence (whole entry): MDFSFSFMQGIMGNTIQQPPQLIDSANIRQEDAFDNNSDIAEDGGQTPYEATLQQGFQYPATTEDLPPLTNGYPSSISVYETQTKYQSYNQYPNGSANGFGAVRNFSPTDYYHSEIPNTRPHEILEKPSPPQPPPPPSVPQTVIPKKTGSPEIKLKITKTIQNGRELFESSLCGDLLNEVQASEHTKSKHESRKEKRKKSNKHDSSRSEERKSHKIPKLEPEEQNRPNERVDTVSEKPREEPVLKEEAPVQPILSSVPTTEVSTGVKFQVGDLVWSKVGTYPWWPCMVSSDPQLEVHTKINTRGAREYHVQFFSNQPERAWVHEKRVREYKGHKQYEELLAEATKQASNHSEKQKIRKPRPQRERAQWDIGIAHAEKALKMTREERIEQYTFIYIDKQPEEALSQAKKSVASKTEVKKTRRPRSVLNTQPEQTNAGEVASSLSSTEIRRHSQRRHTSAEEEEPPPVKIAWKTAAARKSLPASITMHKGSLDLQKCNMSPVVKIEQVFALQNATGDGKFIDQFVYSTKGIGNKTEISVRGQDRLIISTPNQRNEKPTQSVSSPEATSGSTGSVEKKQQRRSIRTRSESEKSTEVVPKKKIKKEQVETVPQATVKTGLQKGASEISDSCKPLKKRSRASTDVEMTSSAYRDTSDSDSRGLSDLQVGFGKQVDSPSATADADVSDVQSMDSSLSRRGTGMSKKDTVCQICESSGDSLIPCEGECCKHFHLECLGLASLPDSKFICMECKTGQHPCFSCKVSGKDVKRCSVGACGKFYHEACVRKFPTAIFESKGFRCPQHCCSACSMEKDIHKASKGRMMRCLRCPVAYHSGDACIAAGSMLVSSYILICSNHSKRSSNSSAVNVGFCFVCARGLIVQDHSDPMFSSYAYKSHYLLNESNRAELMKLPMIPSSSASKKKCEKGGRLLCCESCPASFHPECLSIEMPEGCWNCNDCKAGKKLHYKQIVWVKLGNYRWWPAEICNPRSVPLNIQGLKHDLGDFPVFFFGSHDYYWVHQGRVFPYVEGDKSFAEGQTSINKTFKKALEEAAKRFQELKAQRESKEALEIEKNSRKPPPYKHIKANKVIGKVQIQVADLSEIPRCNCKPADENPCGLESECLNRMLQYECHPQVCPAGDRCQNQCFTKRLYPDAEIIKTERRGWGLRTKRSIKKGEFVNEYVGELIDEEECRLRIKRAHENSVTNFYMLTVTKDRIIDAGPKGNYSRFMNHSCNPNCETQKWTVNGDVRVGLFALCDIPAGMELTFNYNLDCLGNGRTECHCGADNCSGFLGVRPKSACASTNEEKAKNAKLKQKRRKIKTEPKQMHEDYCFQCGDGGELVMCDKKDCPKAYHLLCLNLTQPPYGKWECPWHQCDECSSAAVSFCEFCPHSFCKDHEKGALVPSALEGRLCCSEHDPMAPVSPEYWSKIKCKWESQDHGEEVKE

Measured: inhibition

Protein arginine N-methyltransferase 3 (Homo sapiens), sequence (O60678 2-531 limits assumed): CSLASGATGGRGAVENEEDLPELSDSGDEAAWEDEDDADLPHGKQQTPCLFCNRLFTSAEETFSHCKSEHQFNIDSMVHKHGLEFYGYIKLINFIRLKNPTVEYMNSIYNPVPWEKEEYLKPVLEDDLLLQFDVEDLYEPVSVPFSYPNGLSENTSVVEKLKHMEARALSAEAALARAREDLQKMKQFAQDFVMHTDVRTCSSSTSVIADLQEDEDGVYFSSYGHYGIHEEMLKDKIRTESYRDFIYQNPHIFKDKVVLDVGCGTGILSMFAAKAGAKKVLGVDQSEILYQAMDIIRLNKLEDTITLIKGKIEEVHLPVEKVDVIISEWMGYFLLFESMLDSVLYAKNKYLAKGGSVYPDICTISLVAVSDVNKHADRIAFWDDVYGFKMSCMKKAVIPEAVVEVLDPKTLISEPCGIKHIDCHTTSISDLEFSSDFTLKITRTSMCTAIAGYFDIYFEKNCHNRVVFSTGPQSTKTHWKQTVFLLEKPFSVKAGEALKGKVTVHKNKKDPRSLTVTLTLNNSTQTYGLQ
Histone-lysine N-methyltransferase EZH2 (Homo sapiens), sequence (Q15910 whole entry, looked up): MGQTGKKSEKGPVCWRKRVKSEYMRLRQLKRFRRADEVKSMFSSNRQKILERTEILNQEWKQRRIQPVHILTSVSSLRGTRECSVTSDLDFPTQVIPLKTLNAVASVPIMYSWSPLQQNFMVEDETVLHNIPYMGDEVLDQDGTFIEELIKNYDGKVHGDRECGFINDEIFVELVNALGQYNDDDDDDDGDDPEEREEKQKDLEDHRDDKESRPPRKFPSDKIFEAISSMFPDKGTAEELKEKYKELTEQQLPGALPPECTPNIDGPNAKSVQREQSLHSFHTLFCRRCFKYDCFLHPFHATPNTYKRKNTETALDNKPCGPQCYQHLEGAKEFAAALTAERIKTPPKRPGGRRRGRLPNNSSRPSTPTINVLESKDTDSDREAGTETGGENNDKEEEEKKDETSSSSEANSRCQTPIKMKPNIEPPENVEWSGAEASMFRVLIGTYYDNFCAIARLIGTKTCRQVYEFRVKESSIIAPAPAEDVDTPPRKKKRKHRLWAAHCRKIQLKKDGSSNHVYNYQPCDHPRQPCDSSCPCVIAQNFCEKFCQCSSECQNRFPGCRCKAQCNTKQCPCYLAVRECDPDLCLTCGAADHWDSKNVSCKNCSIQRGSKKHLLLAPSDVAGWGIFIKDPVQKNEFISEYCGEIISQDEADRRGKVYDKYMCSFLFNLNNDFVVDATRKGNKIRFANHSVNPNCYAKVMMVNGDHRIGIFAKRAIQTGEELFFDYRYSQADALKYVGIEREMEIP
Histone-lysine N-methyltransferase, H3 lysine-79 specific (Homo sapiens), sequence (Q8TEK3 whole entry, looked up): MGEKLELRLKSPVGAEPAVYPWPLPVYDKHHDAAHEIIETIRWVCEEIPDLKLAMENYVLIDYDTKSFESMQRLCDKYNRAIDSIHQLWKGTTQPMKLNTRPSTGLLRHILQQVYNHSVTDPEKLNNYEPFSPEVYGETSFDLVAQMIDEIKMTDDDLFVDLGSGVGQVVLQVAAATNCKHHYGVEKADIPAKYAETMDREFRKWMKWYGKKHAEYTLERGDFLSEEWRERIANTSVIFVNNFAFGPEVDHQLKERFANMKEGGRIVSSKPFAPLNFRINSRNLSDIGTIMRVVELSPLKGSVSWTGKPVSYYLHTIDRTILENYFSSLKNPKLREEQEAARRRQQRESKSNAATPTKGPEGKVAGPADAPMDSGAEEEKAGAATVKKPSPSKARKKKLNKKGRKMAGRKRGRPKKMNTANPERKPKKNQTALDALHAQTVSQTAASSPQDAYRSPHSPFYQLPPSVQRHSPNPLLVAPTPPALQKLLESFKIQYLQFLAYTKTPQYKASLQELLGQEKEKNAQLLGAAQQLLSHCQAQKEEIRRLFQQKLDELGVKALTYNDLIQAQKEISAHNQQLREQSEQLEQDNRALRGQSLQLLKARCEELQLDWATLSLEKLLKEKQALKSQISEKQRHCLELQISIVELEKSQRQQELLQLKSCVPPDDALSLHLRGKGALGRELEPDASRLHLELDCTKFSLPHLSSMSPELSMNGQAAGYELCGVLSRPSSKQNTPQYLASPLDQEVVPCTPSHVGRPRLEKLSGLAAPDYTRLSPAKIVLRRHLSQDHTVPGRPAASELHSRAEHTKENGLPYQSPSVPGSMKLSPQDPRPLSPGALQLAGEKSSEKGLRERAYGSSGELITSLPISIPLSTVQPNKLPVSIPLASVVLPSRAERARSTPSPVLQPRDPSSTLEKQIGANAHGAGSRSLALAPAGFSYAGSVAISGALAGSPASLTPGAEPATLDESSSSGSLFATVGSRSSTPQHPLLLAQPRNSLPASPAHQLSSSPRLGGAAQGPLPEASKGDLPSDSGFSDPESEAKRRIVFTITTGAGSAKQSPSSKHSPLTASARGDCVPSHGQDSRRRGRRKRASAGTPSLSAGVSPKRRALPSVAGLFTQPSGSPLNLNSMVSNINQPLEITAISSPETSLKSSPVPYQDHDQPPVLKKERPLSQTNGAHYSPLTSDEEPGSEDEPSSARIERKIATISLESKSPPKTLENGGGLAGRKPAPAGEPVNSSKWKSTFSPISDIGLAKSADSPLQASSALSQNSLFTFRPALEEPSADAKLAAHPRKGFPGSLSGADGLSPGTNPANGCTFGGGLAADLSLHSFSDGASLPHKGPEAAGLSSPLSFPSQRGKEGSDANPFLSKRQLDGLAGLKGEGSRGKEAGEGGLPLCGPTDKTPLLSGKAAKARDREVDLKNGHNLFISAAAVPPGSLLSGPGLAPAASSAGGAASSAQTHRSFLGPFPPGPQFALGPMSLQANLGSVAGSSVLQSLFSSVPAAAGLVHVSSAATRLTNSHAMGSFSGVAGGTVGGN

O=C1Cc2cc(C(=O)N[C@H]3C[C@H]4CC[C@@H](C3)N4S(=O)(=O)N3CCC(NCc4ccccc4)CC3)c(Cl)cc2N1
< 30%: [1] | [2] | [3] | [4] | [5]

O=C1Cc2cc(C(=O)N[C@H]3C[C@H]4CC[C@@H](C3)N4S(=O)(=O)CC3CCN(CCCC(F)(F)F)CC3)c(Cl)cc2N1
< 30%: [1] | [2] | [3] | [4] | [5]
